From patent publication US20230191413A1, “METHOD AND APPARATUS FOR MEASURING PHASE TRANSITION CHARACTERISTICS OF MACROMOLECULES” (CAMBRIDGE ENTERPRISE LIMITED, priority 2020, published 2023)

Molecular target: T1, FUS-GFP (FUS^G156E-EGFP) (Homo sapiens, UniProt P35637, G156E)
T1 sequence (P35637 1-526 G156E): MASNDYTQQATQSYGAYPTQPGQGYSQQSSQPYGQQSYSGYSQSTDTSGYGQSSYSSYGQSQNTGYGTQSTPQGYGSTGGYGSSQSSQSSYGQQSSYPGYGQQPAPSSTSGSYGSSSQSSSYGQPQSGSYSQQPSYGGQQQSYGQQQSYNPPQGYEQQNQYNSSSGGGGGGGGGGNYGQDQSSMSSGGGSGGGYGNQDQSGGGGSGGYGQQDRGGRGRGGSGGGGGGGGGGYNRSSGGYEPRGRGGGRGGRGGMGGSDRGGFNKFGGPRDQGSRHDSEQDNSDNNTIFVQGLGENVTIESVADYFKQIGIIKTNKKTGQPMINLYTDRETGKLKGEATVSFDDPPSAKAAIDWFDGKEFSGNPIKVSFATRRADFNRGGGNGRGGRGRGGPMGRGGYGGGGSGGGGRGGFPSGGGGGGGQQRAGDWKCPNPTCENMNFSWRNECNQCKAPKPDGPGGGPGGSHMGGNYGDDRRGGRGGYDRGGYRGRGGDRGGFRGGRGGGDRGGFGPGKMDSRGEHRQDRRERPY
Assay: Droplet microfluidics phase diagram of FUS-GFP liquid-liquid phase separation as a function of protein and 1,6-hexanediol concentration
Assay type: biochemical
Conditions: micro-droplets, GFP fluorescence puncta; homogeneous phase at higher diol concentrations (FIG. 6, N=322 droplets)
Method: The method utilises droplet microfluidics to rapidly produce many micro-droplets, each of which can be considered a discrete microenvironment in which to study protein phase separation. By altering the input solution conditions, a broad range of phase-separation environments are produced rapidly in order to map LLPS behaviour over a wide region of chemical space. […] Using the microfluidic platform, the phase boundary between phase-separated and homogeneous FUS solution is determined, as modulated by the small molecule 1,6-hexanediol, which is known to strongly interfere with LLPS behaviour. […]
Alexa647 dye (10 μM) was mixed with the 1,6-hexanediol solution, to provide a fluorescent marker for the intra-droplet 1,6-hexanediol concentration. […] Samples were collected for three minutes before undergoing fluorescence imaging analysis.
The concentration of FUS^G156E-EGFP and 1,6-hexanediol present in each droplet was determined by integration of volume-normalised EGFP (green fluorescent protein) and Alexa647 fluorescence, respectively. Phase separation was observed by the presence of discrete puncta in GFP fluorescence, whereas homogeneous droplet fluorescence indicated the absence of phase separation (FIG. 5). […]

## OCCCCCCO [1,6-hexanediol]
  concentration of 1,6-hexanediol at which phase separation of FUS-GFP was observable: < 1 % v/v
